Active and inactive are the calls of the source. The rule behind the calls is not given here.
Assays:
SW-620 [1] = experiment: Reversal of resistance to paclitaxel-induced cytotoxicity in human SW-620/AD300 cells assessed as reduction in paclitaxel IC50 at 2 uM preincubated for 4 hrs followed by paclitaxel addition and measured after 72 hrs by MTT assay (reference value: 4.23 +/- 0.50 uM); type: functional, cell-based
SW-620 [2] = experiment: Reversal of resistance to paclitaxel-induced cytotoxicity in human SW-620 cells assessed as reduction in paclitaxel IC50 at 2 uM preincubated for 4 hrs followed by paclitaxel addition and measured after 72 hrs by MTT assay (reference value: 7.69 +/- 2.78 nM); type: functional, cell-based
KB 3-1 = experiment: Reversal of resistance to paclitaxel-induced cytotoxicity in human KB 3-1 cells assessed as reduction in paclitaxel IC50 at 1 uM preincubated for 4 hrs followed by paclitaxel addition and measured after 72 hrs by MTT assay (reference value: 4.54 +/- 1.59 nM); type: functional, cell-based
KB-C2 [3] = experiment: Reversal of resistance to paclitaxel-induced cytotoxicity in human KB-C2 cells assessed as reduction in paclitaxel IC50 at 1 uM preincubated for 4 hrs followed by paclitaxel addition and measured after 72 hrs by MTT assay (reference value: 1886.37 +/- 243.05 nM); type: functional, cell-based
KB-C2 [4] = experiment: Reversal of resistance to paclitaxel-induced cytotoxicity in human KB-C2 cells assessed as reversal fold at 1 uM preincubated for 4 hrs followed by paclitaxel addition and measured after 72 hrs by MTT assay relative to paclitaxel; type: functional; settings: time 76 hrs
HEK293 [5] = experiment: Reversal of resistance to paclitaxel-induced cytotoxicity in human HEK293/pcDNA3.1 cells assessed as reduction in paclitaxel IC50 at 1 uM preincubated for 4 hrs followed by paclitaxel addition and measured after 72 hrs by MTT assay (reference value: 1.93 +/- 0.06 nM); type: functional, cell-based
HEK293 [6] = experiment: Reversal of resistance to paclitaxel-induced cytotoxicity in human HEK293/ABCB1 cells assessed as reduction in paclitaxel IC50 at 1 uM preincubated for 4 hrs followed by paclitaxel addition and measured after 72 hrs by MTT assay (reference value: 91.40 +/- 23.32 nM); type: functional, cell-based
HEK293 [7] = experiment: Reversal of resistance to paclitaxel-induced cytotoxicity in human HEK293/ABCB1 cells assessed as reduction in paclitaxel IC50 at 2 uM preincubated for 4 hrs followed by paclitaxel addition and measured after 72 hrs by MTT assay (reference value: 91.40 +/- 23.32 nM); type: functional, cell-based
SW-620 [8] = experiment: Effect on ABCB1 expression in human SW-620/AD300 cells at 2 uM measured upto 96 hrs by Western blot analysis; type: functional, cell-based
[9] = target: ATP-dependent translocase ABCB1 (Homo sapiens, UniProt P08183); experiment: Activation of ABCB1 ATPase activity (unknown origin) assessed as fold stimulation of ATP hydrolysis at 0 to 20 uM using Mg-ATP as substrate incubated for 20 mins by spectrophotometric method; settings: dose 0-20 µM
SW-620 [10] = experiment: Antitumor activity against human SW-620/AD300 cells xenografted in BALB/c nude mouse assessed as tumor growth inhibition at 30 mg/kg/day, ig administered for 21 days; type: functional; set-up: scale not given: the % may be the effect or the level left; settings: time 21 day
SW-620 [11] = experiment: Antitumor activity against human SW-620/AD300 cells xenografted in BALB/c nude mouse assessed as reduction in tumor weight at 30 mg/kg/day, ig administered for 21 days in presence of paclitaxel; type: functional, organism-based; settings: time 21.0 day
Mus musculus [12] = experiment: Toxicity in BALB/c mouse xenografted with human SW-620/AD300 cells assessed as change in body weight at 30 mg/kg/day, ig administered 21 days in presence of paclitaxel; type: organism-based; settings: in vivo, po, 504 h, time 21 day
Mus musculus [13] = experiment: Toxicity in BALB/c mouse xenografted with human SW-620/AD300 cells assessed as mortality at 30 mg/kg/day, ig administered 21 days; type: organism-based; settings: in vivo, po, 504 h, time 21 day
[14] = Clearance in Sprague-Dawley rat at 10 mg/kg, iv measured up to 24 hrs by LC-MS/MS analysis; type: ADME, organism-based; settings: in vivo
[15] = AUClast in Sprague-Dawley rat at 10 mg/kg, iv measured up to 24 hrs by LC-MS/MS analysis; type: ADME, organism-based; set-up: dose 10 mg/kg, time < 24 hrs, route iv; settings: in vivo
[16] = MRTlast in Sprague-Dawley rat at 10 mg/kg, iv measured up to 24 hrs by LC-MS/MS analysis; type: ADME, organism-based; settings: in vivo

Chain of ATP-dependent translocase ABCB1 (P08183 whole entry): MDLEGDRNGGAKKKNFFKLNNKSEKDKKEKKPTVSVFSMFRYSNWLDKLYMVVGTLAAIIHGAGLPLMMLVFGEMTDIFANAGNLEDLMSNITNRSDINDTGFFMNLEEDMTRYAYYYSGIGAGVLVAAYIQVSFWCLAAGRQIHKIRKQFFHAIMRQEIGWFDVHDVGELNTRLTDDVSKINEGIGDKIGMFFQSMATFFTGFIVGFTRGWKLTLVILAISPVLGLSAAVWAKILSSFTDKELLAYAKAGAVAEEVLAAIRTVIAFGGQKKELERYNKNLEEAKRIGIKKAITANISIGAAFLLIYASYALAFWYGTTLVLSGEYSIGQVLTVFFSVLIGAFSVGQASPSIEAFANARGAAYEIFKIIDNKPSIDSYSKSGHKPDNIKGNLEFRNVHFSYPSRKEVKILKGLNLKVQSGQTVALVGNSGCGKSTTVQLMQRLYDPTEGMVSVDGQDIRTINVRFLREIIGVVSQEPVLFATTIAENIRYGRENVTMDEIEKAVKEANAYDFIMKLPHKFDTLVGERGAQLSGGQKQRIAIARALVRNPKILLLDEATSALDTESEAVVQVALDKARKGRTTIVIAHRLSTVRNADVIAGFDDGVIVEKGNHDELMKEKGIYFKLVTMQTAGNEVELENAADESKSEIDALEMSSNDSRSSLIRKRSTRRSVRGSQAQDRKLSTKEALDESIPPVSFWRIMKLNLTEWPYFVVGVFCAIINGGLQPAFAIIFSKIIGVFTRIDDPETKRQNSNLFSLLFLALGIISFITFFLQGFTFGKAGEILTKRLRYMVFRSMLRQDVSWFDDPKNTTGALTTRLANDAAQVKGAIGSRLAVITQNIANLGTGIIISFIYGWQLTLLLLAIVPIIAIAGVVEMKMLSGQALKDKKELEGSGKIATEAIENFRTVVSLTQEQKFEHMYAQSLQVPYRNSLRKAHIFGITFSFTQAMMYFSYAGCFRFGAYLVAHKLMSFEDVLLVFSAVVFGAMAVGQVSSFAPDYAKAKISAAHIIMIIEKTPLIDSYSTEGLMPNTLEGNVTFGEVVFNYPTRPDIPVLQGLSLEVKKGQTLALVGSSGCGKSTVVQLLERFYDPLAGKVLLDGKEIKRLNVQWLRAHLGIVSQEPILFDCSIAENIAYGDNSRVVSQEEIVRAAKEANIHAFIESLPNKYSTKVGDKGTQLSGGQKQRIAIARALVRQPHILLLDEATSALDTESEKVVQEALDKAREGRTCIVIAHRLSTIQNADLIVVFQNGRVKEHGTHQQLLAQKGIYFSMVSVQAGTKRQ

`Cc1cc(Nc2ccc(C(=O)/C=C/c3ccc4ccccc4c3)cc2)n2nc(SCc3nc4ccccc4[nH]3)nc2n1` showed an IC50 (SW-620 [1]) of 5 nM, an IC50 (SW-620 [2]) of 6.98 nM and an IC50 (KB 3-1) of 4.09 nM. For the same molecule, the IC50 (KB-C2 [3]) was 15.9 nM, the “fold change (FC)” value (KB-C2 [4]) was 118.34 and the IC50 (HEK293 [5]) was 1.69 nM. For the same molecule, the IC50 (HEK293 [6]) was 9.21 nM, the IC50 (HEK293 [7]) was 3.68 nM and the Activity (SW-620 [8]) was “inactive”. The “fold change (FC)” value [9] was 4.68, the Activity (SW-620 [10]) was 30% and the Activity (SW-620 [11]) was “Active”. The Activity (Mus musculus [12]) was “Non-Toxic”, the Activity (Mus musculus [13]) was “Non-Toxic” and the clearance [14] was 17.7 mL/min/kg. It also gave an AUC(0-t) at 24 h [15] of 9440 ng·h/mL and an MRT last at 24 h [16] of 5.76 min.

Source: ChEMBL document CHEMBL5055665, “Discovery of the Triazolo[1,5-a]Pyrimidine-Based Derivative WS-898 as a Highly Efficacious and Orally Bioavailable ABCB1 Inhibitor Capable of Overcoming Multidrug Resistance” (J Med Chem, 2021)
